Tests used:
ERK2 = molecular target: T1, ERK2 (Homo sapiens, UniProt P28482); assay: ERK2 kinase assay (TR-FRET); format: biochemical; conditions: Abs_IC50, ATP 10 μM; ±0.682, n=17
T1 construct: purchased Invitrogen PV3595B
Procedure: The purpose of this assay is to measure the ability of compounds to inhibit ERK2 kinase activity. Perform the ERK2 kinase assay in vitro using a TR-FRET assay. Start all reactions (12.5 μL) by adding 5 µL of ERK2 enzyme (Invitrogen, #PV3595B, final conc 50 ng/mL) plus substrate GFP-ATF2 (Invitrogen, #PV4445, final conc 0.2 μM), 5 µL of ATP solution (Invitrogen, #PV3227, final conc 10 μM) prepared in kinase buffer (50 mM Hepes pH 7.4, 5 mM MgCl2, 0.1 mM EGTA, 0.01% Triton X-100, 1 mM DTT) and 2.5 μL of testing compounds in DMSO solution ([…], v/v) in a 384-well PROXIPLATE™ (Perkin Elmer, #GRN6260). Incubate reactions at room temperature for 60 minutes. Stop reactions by addition of […] of stop buffer (10 mM EDTA, 2 nM Tb-anti-pATF2 (pThr71) antibody, Invitrogen, #PV4448) in TR-FRET dilution buffer (Invitrogen, # PV3574). Incubate the plates at room temperature for an additional 60 minutes and read ON ENVISION® (PerkinElmer) plate reader at the excitation wavelength of 340 nm. Calculate a TR-FRET ratio by dividing the GFP acceptor emission signal (at 520 nm) by the Tb donor emission signal (at 495 nm). Calculate percent inhibition using compound wells relative to on-plate Max (DMSO control) and Min (No enzyme added) control wells TR-FRET ratio data {% inhibition=100−[(test compound−median Min)/(median Max−Min)×100]}. […]

[1] = system: human colorectal cancer cells HCT116; assay: Xenograft tumor model HCT116; format: in vivo, female athymic nude mice; conditions: oral
Procedure: The purpose of this assay is to measure reduction in tumor volume in response to test compound administration. Expand human colorectal cancer cells HCT116 (ATCC, #CCL-247) or human non-small cell lung cancer cells NCI-H358 (ATCC, # CRL-5807) in culture, harvest and inject 5×10e^6 cells in 200 μL of 1:1 HBSS+matrigel solution subcutaneously on to the rear right flank of female athymic nude mice (22-25 gm, Harlan Laboratories). Expand human pancreatic cancer cells SW1990 (ATCC, # CRL-2172) in culture, harvest and inject 2×10e^6 cells in 200 μL of 1:1 HBSS+matrigel solution subcutaneously on to the rear right flank of female athymic nude mice (22-25 gm, Harlan Laboratories). Expand human pancreatic cancer cells MIA PACA-2 (ATCC, # CRL-1420) or human non-small cell lung cancer cells A549 (ATCC, # CCl-185) in culture, harvest and inject 5×10e^6 cells in 200 μL of 1:1 HBSS+matrigel solution subcutaneously on to the rear right flank of female CB-17 SCID mice (22-25 gm, Charles River Laboratories International Inc.). Expand human melanoma cells A-375 (ATCC, # CRL-1619) in culture, harvest and inject 5×10e^6 cells in 200 μL of 1:1 HBSS+matrigel solution subcutaneously on to the rear right flank of female NIH nude rats (140-160 gm, Taconic Farms). Measure tumor growth and body weight twice per week beginning the seventh day after the implantation. When tumor sizes reach 200-400 mm^3, randomize animals and group into groups of eight to ten animals. Prepare test compound in an appropriate vehicle (vehicle: 1% HEC/0.25% Tween 80/0.05% Antifoam) and administer by oral gavage for 14 to 28 days. Tumor response is determined by tumor volume measurement performed twice a week during the course of treatment.

T1 sequence (P28482 whole entry): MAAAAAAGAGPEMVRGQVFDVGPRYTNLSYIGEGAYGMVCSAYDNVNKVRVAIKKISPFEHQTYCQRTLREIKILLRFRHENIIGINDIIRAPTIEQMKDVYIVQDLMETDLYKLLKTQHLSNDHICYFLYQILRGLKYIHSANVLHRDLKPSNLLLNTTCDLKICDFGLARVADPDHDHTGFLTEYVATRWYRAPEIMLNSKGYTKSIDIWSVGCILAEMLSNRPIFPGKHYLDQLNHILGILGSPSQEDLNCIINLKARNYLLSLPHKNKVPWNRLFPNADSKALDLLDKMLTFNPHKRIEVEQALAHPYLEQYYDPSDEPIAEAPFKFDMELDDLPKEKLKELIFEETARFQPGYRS

## COCCN1C(=O)c2cc(-c3ccnc(Nc4ccnn4C)c3)sc2C1(C)C [Example 1, 5-(2-Methoxyethyl)-6,6-dimethyl-2-{2-[(1-methyl-1H-pyrazol-5-yl)amino]pyridin-4-yl}-5,6-dihydro-4H-thieno[2,3-c]pyrrol-4-one]
ERK2
  IC50: 1.93 nM
[1]; HCT116, 10 mg/kg BID, p 0.023
  Delta T/C (%): 55%
[1]; HCT116, 25 mg/kg BID, p <0.001
  Delta T/C (%): 89%
[1]; HCT116, 50 mg/kg BID, p <0.001
  Regression (%): −31%
[1]; HCT116, 50 mg/kg QD, p <0.001
  Delta T/C (%): 83%
[1]; HCT116, 75 mg/kg QD, p <0.001
  Delta T/C (%): 98%

Source: patent US9879029B2, “ERK inhibitors” (Eli Lilly and Company, priority 2014, dated 2018)
